Organism: Rattus norvegicus
Assay: DrugMatrix - Regimen: Daily Repeat
Assay type: toxicity, organism-based, Sprague-Dawley
Set-up: regimen Daily Repeat, gender Male, age 6-8 weeks
Settings: in vivo, po, route oral GAVAGE, vehicle 100 % WATER; for HEMATOCRIT / HEMOGLOBIN / LEUKOCYTE COUNT / MEAN CORPUSCULAR HEMOGLOBIN / MEAN CORPUSCULAR HEMOGLOBIN CONCENTRATION / MEAN CORPUSCULAR VOLUME: tissue Blood; for ALANINE AMINOTRANSFERASE / ALBUMIN / ALKALINE PHOSPHATASE / ASPARTATE AMINOTRANSFERASE / BLOOD UREA NITROGEN / CARBON DIOXIDE / CHLORIDE / CHOLESTEROL / CREATINE PHOSPHOKINASE / CREATININE / LACTATE DEHYDROGENASE / LIPASE / PHOSPHORUS / TOTAL BILIRUBIN / TOTAL PROTEIN / URIC ACID: tissue Plasma
[1] = 0 mg/kg, 72 h, dose level Control, time 3 day
[2] = 0 mg/kg, 120 h, dose level Control, time 5 day
[3] = 58 mg/kg, 72 h, dose level Low, time 3 day
[4] = 58 mg/kg, 120 h, dose level Low, time 5 day

Compound: COc1cc2ncnc(Nc3ccc(F)c(Cl)c3)c2cc1OCCCN1CCOCC1 [GEFITINIB]
- HEMATOCRIT [1]: 42.62%
- HEMOGLOBIN [1]: 13.07 G/DL
- LEUKOCYTE COUNT [1]: 13.95 x10E3/uL
- MEAN CORPUSCULAR HEMOGLOBIN [1]: 21.47 pg
- MEAN CORPUSCULAR HEMOGLOBIN CONCENTRATION [1]: 30.62 G/DL
- MEAN CORPUSCULAR VOLUME [1]: 70.05 fL
- ALANINE AMINOTRANSFERASE [1]: 47.67 u/L
- ALBUMIN [1]: 3.8 G/DL
- ALKALINE PHOSPHATASE [1]: 369 u/L
- ASPARTATE AMINOTRANSFERASE [1]: 86.17 u/L
- BLOOD UREA NITROGEN [1]: 16.33 mg/dL
- CARBON DIOXIDE [1]: 37.33 mmol/L
- CHLORIDE [1]: 104.83 MEQ/L
- CHOLESTEROL [1]: 79.83 mg/dL
- CREATINE PHOSPHOKINASE [1]: 392.83 u/L
- CREATININE [1]: 0.68 mg/dL
- LACTATE DEHYDROGENASE [1]: 426.17 u/L
- LIPASE [1]: 11.67 u/L
- PHOSPHORUS [1]: 11 mg/dL
- TOTAL BILIRUBIN [1]: 0.55 mg/dL
- TOTAL PROTEIN [1]: 6.32 G/DL
- URIC ACID [1]: 0.0167 mg/dL
- HEMATOCRIT [2]: 46.82%
- HEMOGLOBIN [2]: 14.23 G/DL
- LEUKOCYTE COUNT [2]: 13.43 x10E3/uL
- MEAN CORPUSCULAR HEMOGLOBIN [2]: 20.55 pg
- MEAN CORPUSCULAR HEMOGLOBIN CONCENTRATION [2]: 30.38 G/DL
- MEAN CORPUSCULAR VOLUME [2]: 67.62 fL
- ALANINE AMINOTRANSFERASE [2]: 44.67 u/L
- ALBUMIN [2]: 3.8 G/DL
- ALKALINE PHOSPHATASE [2]: 417.83 u/L
- ASPARTATE AMINOTRANSFERASE [2]: 83 u/L
- BLOOD UREA NITROGEN [2]: 15.33 mg/dL
- CARBON DIOXIDE [2]: 38.83 mmol/L
- CHLORIDE [2]: 98.17 MEQ/L
- CHOLESTEROL [2]: 66.83 mg/dL
- CREATINE PHOSPHOKINASE [2]: 383.17 u/L
- CREATININE [2]: 0.72 mg/dL
- LACTATE DEHYDROGENASE [2]: 519.67 u/L
- LIPASE [2]: 4.83 u/L
- PHOSPHORUS [2]: 11.07 mg/dL
- TOTAL BILIRUBIN [2]: 0.55 mg/dL
- TOTAL PROTEIN [2]: 6.3 G/DL
- URIC ACID [2]: 0.0833 mg/dL
- HEMATOCRIT [3]: 45.2%
- HEMOGLOBIN [3]: 13.93 G/DL
- LEUKOCYTE COUNT [3]: 13.22 x10E3/uL
- MEAN CORPUSCULAR HEMOGLOBIN [3]: 21.17 pg
- MEAN CORPUSCULAR HEMOGLOBIN CONCENTRATION [3]: 30.87 G/DL
- MEAN CORPUSCULAR VOLUME [3]: 68.57 fL
- ALANINE AMINOTRANSFERASE [3]: 47.67 u/L
- ALBUMIN [3]: 3.63 G/DL
- ALKALINE PHOSPHATASE [3]: 348 u/L
- ASPARTATE AMINOTRANSFERASE [3]: 93.67 u/L
- BLOOD UREA NITROGEN [3]: 18 mg/dL
- CARBON DIOXIDE [3]: 36.33 mmol/L
- CHLORIDE [3]: 108 MEQ/L
- CHOLESTEROL [3]: 79.67 mg/dL
- CREATINE PHOSPHOKINASE [3]: 307.67 u/L
- CREATININE [3]: 0.7 mg/dL
- LACTATE DEHYDROGENASE [3]: 373.67 u/L
- LIPASE [3]: 10.67 u/L
- PHOSPHORUS [3]: 10.37 mg/dL
- TOTAL BILIRUBIN [3]: 0.37 mg/dL
- TOTAL PROTEIN [3]: 5.97 G/DL
- URIC ACID [3]: 0 mg/dL
- HEMATOCRIT [4]: 46.33%
- HEMOGLOBIN [4]: 14.27 G/DL
- LEUKOCYTE COUNT [4]: 14.5 x10E3/uL
- MEAN CORPUSCULAR HEMOGLOBIN [4]: 20.73 pg
- MEAN CORPUSCULAR HEMOGLOBIN CONCENTRATION [4]: 30.83 G/DL
- MEAN CORPUSCULAR VOLUME [4]: 67.23 fL
- ALANINE AMINOTRANSFERASE [4]: 52.67 u/L
- ALBUMIN [4]: 3.6 G/DL
- ALKALINE PHOSPHATASE [4]: 361.67 u/L
- ASPARTATE AMINOTRANSFERASE [4]: 94 u/L
- BLOOD UREA NITROGEN [4]: 17.33 mg/dL
- CARBON DIOXIDE [4]: 35.67 mmol/L
- CHLORIDE [4]: 100.33 MEQ/L
- CHOLESTEROL [4]: 85.33 mg/dL
- CREATINE PHOSPHOKINASE [4]: 299.67 u/L
- CREATININE [4]: 0.7 mg/dL
- LACTATE DEHYDROGENASE [4]: 423.67 u/L
- LIPASE [4]: 5.33 u/L
- PHOSPHORUS [4]: 11.87 mg/dL
- TOTAL BILIRUBIN [4]: 0.4 mg/dL
- TOTAL PROTEIN [4]: 6.07 G/DL
- URIC ACID [4]: 0.0333 mg/dL

— ChEMBL document CHEMBL3885881, “DrugMatrix”
